{"source": "paper PMC12535076", "about": "“Neurotherapeutic effects of Vutiglabridin as a Paraoxonase-2 modulator in preclinical models of Parkinson’s disease” (Molecular Neurodegeneration, 2025)", "key": {"[1]": {"target": "T1, P-glycoprotein (P-gp, MDR1) (Homo sapiens, UniProt P08183)", "T1 construct": "expressed in transfected cells; host or cells: MDCKII-hMDR1 (canine kidney cells carrying human MDR1); also parental MDCKII and Caco-2 (endogenous human P-gp)", "T1 sequence (P08183 whole entry)": "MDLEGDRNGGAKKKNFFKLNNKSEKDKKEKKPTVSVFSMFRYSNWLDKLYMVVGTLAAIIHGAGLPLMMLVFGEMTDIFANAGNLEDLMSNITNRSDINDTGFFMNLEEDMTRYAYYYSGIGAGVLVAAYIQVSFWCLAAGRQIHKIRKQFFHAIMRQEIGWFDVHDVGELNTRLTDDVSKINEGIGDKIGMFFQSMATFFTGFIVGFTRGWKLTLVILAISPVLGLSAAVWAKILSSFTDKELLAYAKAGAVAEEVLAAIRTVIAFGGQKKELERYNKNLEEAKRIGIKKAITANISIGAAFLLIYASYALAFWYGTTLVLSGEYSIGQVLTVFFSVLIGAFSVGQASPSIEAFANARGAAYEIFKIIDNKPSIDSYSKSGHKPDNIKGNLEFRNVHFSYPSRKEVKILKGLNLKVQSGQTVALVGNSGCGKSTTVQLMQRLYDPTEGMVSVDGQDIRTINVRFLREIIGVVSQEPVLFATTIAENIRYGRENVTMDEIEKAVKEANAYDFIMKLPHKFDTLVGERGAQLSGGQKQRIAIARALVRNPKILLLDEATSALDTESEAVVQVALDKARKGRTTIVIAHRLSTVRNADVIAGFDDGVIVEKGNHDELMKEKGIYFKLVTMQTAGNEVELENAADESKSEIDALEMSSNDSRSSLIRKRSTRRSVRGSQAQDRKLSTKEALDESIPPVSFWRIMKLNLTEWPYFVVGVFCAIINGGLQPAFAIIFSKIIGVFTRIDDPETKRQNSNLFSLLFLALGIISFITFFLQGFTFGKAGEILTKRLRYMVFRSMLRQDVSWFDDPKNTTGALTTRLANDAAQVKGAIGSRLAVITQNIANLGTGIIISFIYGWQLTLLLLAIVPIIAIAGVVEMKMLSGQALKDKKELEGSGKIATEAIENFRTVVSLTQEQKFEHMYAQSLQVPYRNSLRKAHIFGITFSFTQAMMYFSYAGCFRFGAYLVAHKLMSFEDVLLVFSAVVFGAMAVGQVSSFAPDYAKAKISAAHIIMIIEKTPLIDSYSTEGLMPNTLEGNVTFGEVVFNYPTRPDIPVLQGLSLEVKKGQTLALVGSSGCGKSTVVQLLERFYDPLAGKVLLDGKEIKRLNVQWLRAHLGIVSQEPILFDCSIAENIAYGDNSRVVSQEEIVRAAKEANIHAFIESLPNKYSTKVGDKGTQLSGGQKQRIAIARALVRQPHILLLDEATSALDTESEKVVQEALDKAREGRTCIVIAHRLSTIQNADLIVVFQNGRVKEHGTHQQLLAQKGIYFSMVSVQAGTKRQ", "test": "P-glycoprotein (P-gp) efflux assay in cell monolayers", "assay_type": "in vitro ADME", "settings": "MDCKII, MDCKII-hMDR1 and Caco-2 monolayers, with and without P-gp inhibitor GF120918", "method": "P-gp efflux ratio was determined in MDCKII-hMDR1, MDCKII [61], and Caco-2 cell monolayer via LC-MS/MS analysis, in accordance with the standard FDA guideline on transporter-mediated drug interactions. 10 µM of GF120918 was used as P-gp inhibitor. The apical (A-to-B) and basolateral (B-to-A) permeability coefficient (Papp) were measured to yield the efflux ratio.\n(a) Measurement of Vuti concentration in octanol and aqueous phase (pH7.4 phosphate buffer) via HPLC. The mean value of three replicates was used, and the limit of quantification (LOQ) value was used to calculate Log D as a log of concentration in the octanol phase divided by the concentration in the aqueous phase. (b) Efflux ratios (Papp(B→A)/Papp(A→B)) of Vuti in three types of cell monolayers, with or without P-glycoprotein (P-gp) inhibitor GF120918. (c) Schematic of 14C-labeling of Vuti. Attachment to the ethoxy group is warranted because it is robustly maintained throughout metabolism. (d) Plasma radioactivity concentration in Sprague-Dawley rats after a single administration of 10 mg/kg of 14C-Vuti (n = 3)."}, "[2]": {"system": "MPTP-injected C57BL/6 mice", "test": "MPTP-injected sub-acute PD mouse model (pole test, rotarod, TH immunohistochemistry)", "assay_type": "in vivo", "settings": "MPTP mice", "method": "Animals were allowed at least 1 week of acclimatization before being subjected to the study and were housed in a regulated environment with a 12-h/12-h light/dark cycle. Food and water were provided ad libitum. The animal experiment was carried out in accordance with the National Institutes of Health Guide for the Care and Use of Laboratory Animals (NIH Publications No. 80–23; revised 1996). All procedures for handling mice were carried out in accordance with “Principles of Laboratory Animal Care” and the Animal Care and Use guidelines of Kyung Hee University, Seoul, Korea (KHSASP-20-163).\nMPTP was dissolved in distilled water and injected intraperitoneally for five days from day 10 of the 21-day experiment period. Vuti or rasagiline was administered via oral gavage for 21 days. Vehicles for both Vuti and MPTP (distilled water) were administered to all mice. Mice were randomly divided for all studies. For the first set of studies shown in Fig. 3, each group consisted of 5 animals.\nTo determine forelimb and hindlimb motor coordination and balance, we performed the rotarod test as described previously. Also, the pole test was performed to measure bradykinesia. For the rotarod test, the animals were pre-trained on the rotating bar of a rotarod unit set (LE 8500, Letica, Spain) on days 18 and 19 before the test on day 20. During pre-training, three trials per day were performed (5 rpm rotation speed on the first day, 15 rpm rotation speed on the second day). Mice were kept on the rotating bar (7.3-cm diameter) for 5 min on each trial. On day 20, the time spent on the rotating bar at 20 rpm, which was defined as the latent period, was recorded. Performance was recorded as 300 s if the latent period exceeded 300 s. Mice had at least 5 min of rest between trials to reduce stress and fatigue. Each animal underwent three test trials, and the mean of the test results was subjected to statistical analysis. For the pole test, mice were held on the top of the pole (diameter 8 mm, height 55 cm, with a rough surface). The time to land down and place four fee on the floor was recorded as the time for locomotion activity (T-LA).\nOn day 21, mice were anesthetized with sodium pentobarbital (50 mg/kg intraperitoneally) and transcardially perfused with saline containing 0.5% sodium nitrate and heparin (10 U/mL) and then fixed with 4% PFA in 0.1 M phosphate-buffer (PB, pH 7.2). Dissected brains were post-fixed overnight in buffered 4% PFA at 4 °C and stored in a 30% sucrose solution until they sank. Brains were cryosectioned into 30 μm thick coronal sections in a Cryostat (Microsystems AG, Leica, Wetzlar, Germany) and stored until use at 4℃ in a cryoprotectant (25% ethylene glycol, 25% glycerol, 0.2 M PB, and water). All sections were collected in six separate series and processed for immunostaining.\nFree-floating brain sections were processed with the avidin-biotin peroxidase complex (ABC) complex (Vector Laboratories, Burlingame, CA, USA) method. Briefly, brain sections were incubated with primary rabbit anti-TH antibodies (1:1000; Pel-Freez Biologicals, Rogers, AR, USA) overnight at 4 °C, with biotinylated anti-rabbit IgG (1:400) for 1 h at room temperature, and then with the ABC solution (1:1:200) for 1 h at room temperature. The immunoperoxidase signals of TH was detected by incubating sections with 0.5 mg/ml 3,3′-diaminobenzidine (Sigma, St. Louis, MO, USA) in 0.1 M PB containing 0.003% H2O2. Stained brain sections were mounted on gelatin-coated slides and imaged under a bright-field microscope (Olympus Optical, Tokyo, Japan). TH-positivity in the ST was measured by the optical density of TH-positive fibers at x40 magnification using ImageJ software (National Institutes of Health, Bethesda, MD, USA). TH-positive cells in the SNpc in brain tissue Sect. (5 sections/series) were counted at x100 magnification as previously described. […]"}, "[3]": {"settings": "Vuti 1, 50, 100 mg/kg/day or rasagiline 0.1 mg/kg/day orally for 21 days"}}, "data": [{"smiles": "CCOc1ccc(C2COc3c(ccc4c3CCC(C)(C)O4)C2)c(O)c1", "note": "(centres unmarked) [Vuti, Vutiglabridin]", "values": [{"measurement": "efflux ratio (Papp(B→A)/Papp(A→B))", "setting": "[1]", "value": "low efflux ratio"}, {"measurement": "effect on T-LA in the pole test", "setting": "[2]; [3]", "value": "significantly normalized"}, {"measurement": "effect on latency to fall in the rotarod test", "setting": "[2]; [3]", "value": "significantly normalized"}, {"measurement": "number of TH-positive cells in the SNpc and fiber density in the ST", "setting": "[2]; Vuti 1, 50, 100 mg/kg/day oral, p < 0.001 vs. control, levels comparable to rasagiline", "value": "dose-dependently increased"}, {"measurement": "maximum efficacy dose", "setting": "[2]; no difference in neuroprotection between 50 and 100 mg/kg", "value": 50, "unit": "mg/kg"}]}]}
